Read-outs that look alike come from different tables or passages of the source.
How the values were obtained:
[1] = molecular target: T1, p53 Y220C mutant protein (amino acid residues 94-293) (Homo sapiens, UniProt P04637, Y220C); assay: Surface Plasmon Resonance (SPR) assay, Kd_kinetic; type: binding; settings: SPR, p53 Y220C, read-out: SPR P53 Y220C KD kinetic
T1 construct: p53 Y220C mutant protein (amino acid residues 94-293)
In short: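 Kinetic dissociation constants derived by 1:1 model fit of SPR data acquired at 16 or 20 °C, pH 7.5 Tris/NaCl running buffer with 1% DMSO.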

H1299 p53 Y220C = assay: Cell Proliferation Assay (CellTiter-Glo, CTG), H1299 p53 Y220C (NClH1299-inducible p53 Y220C); type: cell-based; settings: Homo sapiens, NCI-H1299, 120 h, 5 days
In short: (§1)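 Tet-One inducible p53 Y220C or R273H constructs were stably introduced into NCI-H1299 by lentiviral transduction; NUGC3 was used as is. Cells (250-500 per well) were exposed to compound for 5 days, then CellTiter-Glo was added for 10 min at room temperature and IC50 was calculated from luminescence.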

NUGC3 p53 Y220C = assay: Cell Proliferation Assay (CellTiter-Glo, CTG), NUGC3 p53 Y220C; type: cell-based; settings: Homo sapiens, NUGC-3, 120 h, 5 days
In short: as §1

H1299 p53 R273H = assay: Cell Proliferation Assay (CellTiter-Glo, CTG), H1299 p53 R273H (NClH1299-inducible p53 R273H); type: cell-based; settings: Homo sapiens, NCI-H1299, 120 h, 5 days
In short: as §1

p53 Y220C = p53 Y220C (Homo sapiens, UniProt P04637, Y220C); assay: Luciferase Reporter Assay (Luc), p53 response element, NClH1299 cells with inducible p53 Y220C; type: cell-based; settings: 6 hour; for AC50: read-out: Luc P53 Y220C AC50
In short: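 Luciferase activity is measured directly after One-Glo addition and a 5-minute room-temperature shake. Before that, cells plated at 5,000 per well receive doxycycline at 0.5 ug/mL for 24 hours, followed by compound for 6 hours.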

[2] = NClH1299-inducible p53 Y220C cells, CellTiter-Glo
[3] = NClH1299-inducible p53 R273H cells, CellTiter-Glo
[4] = AC50, luciferase reporter, NClH1299 inducible p53 Y220C
[5] = Emax, luciferase reporter, NClH1299 inducible p53 Y220C
[6] = NClH1299-inducible p53 Y220C cells
[7] = NClH1299-inducible p53 R273H cells
[8] = AC50, NClH1299 cells with inducible p53 Y220C
[9] = Emax, NClH1299 cells with inducible p53 Y220C, 10 uM tool compound as positive control

T1 sequence (P04637 94-293, stated change not applied): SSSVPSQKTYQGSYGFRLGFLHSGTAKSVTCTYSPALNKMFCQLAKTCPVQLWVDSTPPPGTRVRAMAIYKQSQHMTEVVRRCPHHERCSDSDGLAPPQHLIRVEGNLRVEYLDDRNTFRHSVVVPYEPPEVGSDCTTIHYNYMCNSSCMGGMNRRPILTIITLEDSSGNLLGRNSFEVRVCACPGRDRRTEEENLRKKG

| SMILES | Kd [1] | IC50 (H1299 p53 Y220C; [2]) | IC50 (NUGC3 p53 Y220C; NUGC3 cells, CellTiter-Glo) | IC50 (H1299 p53 R273H; [3]) | AC50 (p53 Y220C; [4]) | Emax (p53 Y220C; [5]) | IC50 (H1299 p53 Y220C; [6]) | IC50 (NUGC3 p53 Y220C; NUGC3 cells) | IC50 (H1299 p53 R273H; [7]) | AC50 (p53 Y220C; [8]) | Emax (p53 Y220C; [9]) | Kd ([1]; kinetic KD) | IC50 (H1299 p53 Y220C; CellTiter-Glo, H1299 p53 Y220C) | IC50 (NUGC3 p53 Y220C; CellTiter-Glo, NUGC3 p53 Y220C) | IC50 (H1299 p53 R273H; CellTiter-Glo, H1299 p53 R273H) | Emax (p53 Y220C; luciferase reporter, NClH1299 inducible p53 Y220C, 10 uM tool compound as positive control) | AC50 (p53 Y220C; luciferase reporter, NClH1299 inducible p53 Y220C) |
| --- | --- | --- | --- | --- | --- | --- | --- | --- | --- | --- | --- | --- | --- | --- | --- | --- | --- |
| CN1CC[C@@H](Nc2cccn3c(SC(F)(F)F)c(C#CCNc4ccc(C(=O)NC[C@H]5CCO5)cc4)cc23)[C@@H](F)C1 [Example 382] | < 10 nM | < 750 nM | < 750 nM | 8 to 10 µM | < 750 nM | > 90% | – | – | – | – | – | – | – | – | – | – | – |
| COc1cc(C(=O)NC[C@@H](C)O)ccc1NCC#Cc1cc2c(N[C@@H]3CCN(C)C[C@@H]3F)cccn2c1SC(F)(F)F [Example 416, 4-{[3-(8-{[(3S,4R)-3-fluoro-1-methylpiperidin-4-yl]amino}-3-[(trifluoromethyl)sulfanyl]indolizin-2-yl)prop-2-yn-1-yl]amino}-N-[(2R)-2-hydroxypropyl]-3-methoxybenzamide] | < 10 nM | < 750 nM | < 750 nM | 5 to 8 µM | < 750 nM | 80 to 90% | – | – | – | – | – | – | – | – | – | – | – |
| CNC(=O)c1ccc(OC)c(NCC#Cc2nc3c(N[C@@H]4[C@@H]5CC[C@H]4NC5)cccn3c2SC(F)(F)F)c1 [Example 247] | < 10 nM | 1500 to 3000 nM | 750 to 1500 nM | 8 to 10 µM | 1500 to 3000 nM | 70 to 80% | – | – | – | – | – | – | – | – | – | – | – |
| CNC(=O)c1ccc(OC)c(NCC#Cc2cc3c(N[C@@H]4CCN(C5COC5)C[C@@H]4F)cccn3c2SC(F)(F)F)c1 [Example 481, 3-{[3-(8-{[(3S,4R)-3-fluoro-1-(oxetan-3-yl)piperidin-4-yl]amino}-3-[(trifluoromethyl)sulfanyl]indolizin-2-yl)prop-2-yn-1-yl]amino}-4-methoxy-N-methylbenzamide] | < 10 nM | – | – | – | – | – | < 750 nM | < 750 nM | 5 to 8 µM | < 750 nM | > 90% | – | – | – | – | – | – |
| COc1cc(C(=O)NC[C@H](C)O)ccc1NCC#Cc1cc2c(N[C@@H]3CCN(C)C[C@@H]3F)cccn2c1SC(F)(F)F [Example 475, 4-{[3-(8-{[(3S,4R)-3-fluoro-1-methylpiperidin-4-yl]amino}-3-[(trifluoromethyl)sulfanyl]indolizin-2-yl)prop-2-yn-1-yl]amino}-N-[(2S)-2-hydroxypropyl]-3-methoxybenzamide] | < 10 nM | – | – | – | – | – | < 750 nM | < 750 nM | 8 to 10 µM | < 750 nM | > 90% | – | – | – | – | – | – |
| COc1cc(P(C)(C)=O)ccc1NCC#Cc1cc2c(N[C@@H]3CCNC[C@@H]3F)cccn2c1SC(F)(F)F [Example 379] | < 10 nM | < 750 nM | < 750 nM | ≥ 10 µM | < 750 nM | > 90% | – | – | – | – | – | – | – | – | – | – | – |
| CNC(=O)c1ccc(NCC#Cc2nc3c(N[C@@H]4CN(C)C[C@@H]4F)nccn3c2SC(F)(F)F)c(OC)c1 [Example 323] | < 10 nM | 750 to 1500 nM | 750 to 1500 nM | ≥ 10 µM | 750 to 1500 nM | > 90% | – | – | – | – | – | – | – | – | – | – | – |
| CNC(=O)c1ccc(NCC#Cc2nc3c(N[C@@H]4CCS(=O)(=O)C4)cccn3c2SC(F)(F)F)c(OC)c1 [Example 230] | 10 to 100 nM | 1500 to 3000 nM | 1500 to 3000 nM | ≥ 10 µM | 1500 to 3000 nM | 80 to 90% | – | – | – | – | – | – | – | – | – | – | – |
| COc1cc(P(C)(C)=O)ccc1NCC#Cc1cn2c(N[C@@H]3CCN(C)C[C@@H]3F)cccc2c1SC(F)F [Example 415] | < 10 nM | 750 to 1500 nM | 750 to 1500 nM | ≥ 10 µM | < 750 nM | 80 to 90% | – | – | – | – | – | – | – | – | – | – | – |
| CNC(=O)c1ccc(N[C@H](C)C#Cc2nc3c(N[C@@H]4CCN(C)C[C@@H]4F)cccn3c2SC(F)(F)F)c(OC)c1 [Example 133] | – | – | – | – | – | – | – | – | – | – | – | 10 to 100 nM | > 3000 nM | > 3000 nM | 5 to 8 µM | > 90% | > 3000 nM |
| COc1ccc(C(=O)NC[C@@H](O)CO)cc1NCC#Cc1cc2c(N[C@@H]3CCN(C)C[C@@H]3F)cccn2c1SC(F)(F)F [Example 462] | < 10 nM | – | – | – | – | – | < 750 nM | < 750 nM | ≥ 10 µM | < 750 nM | > 90% | – | – | – | – | – | – |
| COc1cc(C(=O)NC[C@@H](O)CO)ccc1NCC#Cc1cc2c(N[C@@H]3CCN(C)C[C@@H]3F)cccn2c1SC(F)(F)F [Example 421] | < 10 nM | < 750 nM | < 750 nM | ≥ 10 µM | < 750 nM | > 90% | – | – | – | – | – | – | – | – | – | – | – |
| COc1nc(P(C)(C)=O)ccc1NCC#Cc1cc2c(N[C@@H]3CCN(C)C[C@@H]3F)cccn2c1SC(F)(F)F [Example 390] | < 10 nM | < 750 nM | < 750 nM | 5 to 8 µM | < 750 nM | > 90% | – | – | – | – | – | – | – | – | – | – | – |
| CNC(=O)c1ccc(NCC#Cc2cc3c(N[C@@H]4CCN(C)C[C@@H]4F)nccn3c2SC(F)(F)F)c(O)c1 [Example 446, 4-{[3-(1-{[(3S,4R)-3-fluoro-1-methylpiperidin-4-yl]amino}-6-[(trifluoromethyl)sulfanyl]pyrrolo[1,2-a]pyrazin-7-yl)prop-2-yn-1-yl]amino}-3-hydroxy-N-methylbenzamide] | < 10 nM | < 750 nM | < 750 nM | ≥ 10 µM | < 750 nM | > 90% | – | – | – | – | – | – | – | – | – | – | – |
| CN1CC[C@@H](Nc2cccn3c(SC(F)(F)F)c(C#CCNc4ccc(P(C)(C)=O)cc4)cc23)[C@@H](F)C1 [Example 385] | < 10 nM | < 750 nM | < 750 nM | ≥ 10 µM | < 750 nM | 80 to 90% | – | – | – | – | – | – | – | – | – | – | – |
| CS(=O)(=O)CCNC(=O)c1ccc(NCC#Cc2cc3c(N[C@@H]4CCNC[C@@H]4F)cccn3c2SC(F)(F)F)cc1 [Example 438] | < 10 nM | < 750 nM | < 750 nM | ≥ 10 µM | < 750 nM | 80 to 90% | – | – | – | – | – | – | – | – | – | – | – |
| C[C@@H](O)CNC(=O)c1ccc(NCC#Cc2cc3c(N[C@@H]4CCN(C)C[C@@H]4F)cccn3c2SC(F)(F)F)cc1 [Example 414] | < 10 nM | < 750 nM | < 750 nM | ≥ 10 µM | < 750 nM | > 90% | – | – | – | – | – | – | – | – | – | – | – |
| COc1ccc(C(=O)NCC(C)(C)O)cc1NCC#Cc1cc2c(N[C@@H]3CCN(C)C[C@@H]3F)cccn2c1SC(F)(F)F [Example 424] | < 10 nM | < 750 nM | < 750 nM | ≥ 10 µM | < 750 nM | > 90% | – | – | – | – | – | – | – | – | – | – | – |

Source: US20260374766A1, “METHODS FOR TREATING CANCER” (Antares Therapeutics, Inc., priority 2022, published 2026)
